These are literature values, as cited in patent US11590211B2, “Systems for treating dermal inflammatory conditions” (Nuvothera, Inc., priority 2016, dated 2023).

Data set [1] has as its system NF-κB. The settings on record: reference 5.
In data set [2] the test system is modified mouse tail test. The settings on record: reference 7.
The test system of data set [3] is human keratinocytes. As to conditions: through suppression of pro-inflammatory pathways; references 8, 9.
For data set [4], the system named is skin cells. As to conditions: reference 10.

Regarding `COc1cc(/C=C/C(=O)CC(=O)/C=C/c2ccc(O)c(OC)c2)ccc1O` [curcumin], in data set [1], the “Activation of NF-κB” value is reported as “down-modulated”. Moreover, in data set [2], the “Activity in the modified mouse tail test” value is reported as “anti-psoriatic activity”. In addition, the “Effect on proliferation of human keratinocytes” value in data set [3] was “inhibition of the proliferation”. The “Effect on anti-apoptotic function of TNF-α in skin cells” value in data set [4] is recorded as “reverse the anti-apoptotic function of TNF-α”.
